Data published in US20220324815A1, “2-PHENOXY-PYRIMIDINE DERIVATIVES AS HERBICIDAL COMPOUNDS” (SYNGENTA CROP PROTECTION AG, priority 2019, published 2022).

Legend:
Assay type in all cases: in vivo
Details in all cases: 250 g/ha unless otherwise stated, evaluated after 13 days, five-point scale
[1] = tested on: Echinochloa crus-galli (ECHCG); assay: Test 1 glasshouse herbicide test, pre-emergence application (Table B2)
Protocol: (§1) Seeds of a variety of test species are sown in standard soil in pots (Lolium perenne (LOLPE), Solanum nigrum (SOLNI), Amaranthus retoflexus (AMARE), Setaria faberi (SETFA), Echinochloa crus-galli (ECHCG) and Ipomoea hederacea (IPOHE)). After cultivation for one day (pre-emergence) or after 8 days cultivation (post-emergence) under controlled conditions in a glasshouse (at 24/16° C., day/night; 14 hours light; 65% humidity), the plants are sprayed with an aqueous spray solution derived from the formulation of the technical active ingredient in acetone/water (50:50) solution containing 0.5% Tween 20 (polyoxyethelyene sorbitan monolaurate, CAS RN 9005-64-5). Compounds are applied at 250 g/ha unless otherwise stated. The test plants are then grown in a glasshouse under controlled conditions in a glasshouse (at 24/16° C., day/night; 14 hours light; 65% humidity) and watered twice daily. After 13 days for pre and post-emergence, the test is evaluated for the percentage damage caused to the plant. The biological activities (% phytotoxicity) are shown in Tables B1 and B2 below using a five-point scale (5=81 to 100%; 4=61 to 80%; 3=41 to 60%; 2=21 to 40%; 1=0 to 20%).

Setaria faberi (SETFA) [2] = assay: as above
Protocol: as §1

[3] = tested on: Amaranthus retoflexus (AMARE); assay: as above
Protocol: as §1

[4] = tested on: Ipomoea hederacea (IPOHE); assay: as above
Protocol: as §1

[5] = tested on: Echinochloa crus-galli (ECHCG); assay: Test 1 glasshouse herbicide test, post-emergence application (Table B1)
Protocol: as §1

Setaria faberi (SETFA) [6] = assay: as above
Protocol: as §1

[7] = tested on: Amaranthus retoflexus (AMARE); assay: as above
Protocol: as §1

[8] = tested on: Ipomoea hederacea (IPOHE); assay: as above
Protocol: as §1

SMILES	% phytotoxicity ECHCG, pre-emergence application [1]	% phytotoxicity SETFA, pre-emergence application (Setaria faberi (SETFA) [2])	% phytotoxicity AMARE, pre-emergence application [3]	% phytotoxicity IPOHE, pre-emergence application [4]	% phytotoxicity ECHCG, post-emergence application [5]	% phytotoxicity SETFA, post-emergence application (Setaria faberi (SETFA) [6])	% phytotoxicity AMARE, post-emergence application [7]	% phytotoxicity IPOHE, post-emergence application [8]
CCC(C)Sc1ccccc1Oc1ncc(Cl)cn1 (racemic) [Compound A65]	4 (4=61 to 80%)	4 (4=61 to 80%)	3 (3=41 to 60%)	1 (1=0 to 20%)	4 (4=61 to 80%)	3 (3=41 to 60%)	1 (1=0 to 20%)	3 (3=41 to 60%)
CCCC(C)CSc1ccccc1Oc1ncc(Cl)cn1 (racemic) [Compound A69]	3 (3=41 to 60%)	4 (4=61 to 80%)	1 (1=0 to 20%)	1 (1=0 to 20%)	4 (4=61 to 80%)	2 (2=21 to 40%)	4 (4=61 to 80%)	1 (1=0 to 20%)
CCCC(C)CS(=O)(=O)c1ccccc1Oc1ncc(Cl)cn1 (racemic) [Compound A74]	1 (1=0 to 20%)	1 (1=0 to 20%)	1 (1=0 to 20%)	1 (1=0 to 20%)	1 (1=0 to 20%)	1 (1=0 to 20%)	3 (3=41 to 60%)	1 (1=0 to 20%)
CCCCS(=O)(=O)c1ccccc1Oc1ncc(Cl)cn1 [Compound A20]	4 (4=61 to 80%)	4 (4=61 to 80%)	3 (3=41 to 60%)	1 (1=0 to 20%)	2 (2=21 to 40%)	3 (3=41 to 60%)	2 (2=21 to 40%)	1 (1=0 to 20%)
CCCCSc1ccccc1Oc1ncc(Cl)cn1 [Compound A21]	5 (5=81 to 100%)	5 (5=81 to 100%)	4 (4=61 to 80%)	2 (2=21 to 40%)	4 (4=61 to 80%)	4 (4=61 to 80%)	4 (4=61 to 80%)	3 (3=41 to 60%)
CCCC[S+]([O-])c1ccccc1Oc1ncc(Cl)cn1 (stereo not drawn) [Compound A22]	5 (5=81 to 100%)	5 (5=81 to 100%)	4 (4=61 to 80%)	5 (5=81 to 100%)	4 (4=61 to 80%)	4 (4=61 to 80%)	3 (3=41 to 60%)	2 (2=21 to 40%)
CCCC(C)Sc1ccccc1Oc1ncc(Cl)cn1 (stereo not drawn) [Compound A33]	1 (1=0 to 20%)	3 (3=41 to 60%)	1 (1=0 to 20%)	1 (1=0 to 20%)	2 (2=21 to 40%)	2 (2=21 to 40%)	3 (3=41 to 60%)	1 (1=0 to 20%)
N#Cc1ccc(CSc2ccccc2Oc2ncc(Cl)cn2)cc1 [Compound A36]	4 (4=61 to 80%)	5 (5=81 to 100%)	5 (5=81 to 100%)	2 (2=21 to 40%)	3 (3=41 to 60%)	4 (4=61 to 80%)	5 (5=81 to 100%)	3 (3=41 to 60%)
Cl/C=C/CSc1ccccc1Oc1ncc(Cl)cn1 [Compound A37]	4 (4=61 to 80%)	3 (3=41 to 60%)	4 (4=61 to 80%)	1 (1=0 to 20%)	2 (2=21 to 40%)	2 (2=21 to 40%)	4 (4=61 to 80%)	2 (2=21 to 40%)
O=S(=O)(C/C=C/Cl)c1ccccc1Oc1ncc(Cl)cn1 [Compound A38]	1 (1=0 to 20%)	1 (1=0 to 20%)	2 (2=21 to 40%)	1 (1=0 to 20%)	1 (1=0 to 20%)	1 (1=0 to 20%)	2 (2=21 to 40%)	3 (3=41 to 60%)
N#Cc1cccc(Oc2ncc(Cl)cn2)c1SCCCCC(F)(F)F [Compound A39]	5 (5=81 to 100%)	5 (5=81 to 100%)	5 (5=81 to 100%)	2 (2=21 to 40%)	5 (5=81 to 100%)	5 (5=81 to 100%)	5 (5=81 to 100%)	3 (3=41 to 60%)
N#Cc1cccc(Oc2ncc(Cl)cn2)c1SCCCCCC(F)(F)F [Compound A40]	4 (4=61 to 80%)	5 (5=81 to 100%)	5 (5=81 to 100%)	1 (1=0 to 20%)	4 (4=61 to 80%)	4 (4=61 to 80%)	5 (5=81 to 100%)	3 (3=41 to 60%)
COCCSc1ccccc1Oc1ncc(Cl)cn1 [Compound A41]	2 (2=21 to 40%)	2 (2=21 to 40%)	1 (1=0 to 20%)	2 (2=21 to 40%)	3 (3=41 to 60%)	2 (2=21 to 40%)	3 (3=41 to 60%)	3 (3=41 to 60%)
COCCS(=O)(=O)c1ccccc1Oc1ncc(Cl)cn1 [Compound A42]	1 (1=0 to 20%)	1 (1=0 to 20%)	1 (1=0 to 20%)	1 (1=0 to 20%)	1 (1=0 to 20%)	1 (1=0 to 20%)	2 (2=21 to 40%)	1 (1=0 to 20%)
CCCCCS(=O)(=O)c1ccccc1Oc1ncc(Cl)cn1 [Compound A43]	4 (4=61 to 80%)	4 (4=61 to 80%)	5 (5=81 to 100%)	1 (1=0 to 20%)	2 (2=21 to 40%)	2 (2=21 to 40%)	3 (3=41 to 60%)	1 (1=0 to 20%)
CCCCCSc1ccccc1Oc1ncc(Cl)cn1 [Compound A44]	5 (5=81 to 100%)	5 (5=81 to 100%)	5 (5=81 to 100%)	1 (1=0 to 20%)	4 (4=61 to 80%)	2 (2=21 to 40%)	5 (5=81 to 100%)	1 (1=0 to 20%)
O=S(=O)(CC(F)(F)F)c1ccccc1Oc1ncc(Cl)cn1 [Compound A78]	1 (1=0 to 20%)	1 (1=0 to 20%)	3 (3=41 to 60%)	1 (1=0 to 20%)				
